Measured values from article PMC10979747 (Journal of the American Chemical Society, 2024).
Like-named read-outs stand apart in the source and are kept apart here. Numbered stars: 1 amine (or outer) side, 2 acyl side, 3 side chain; on linkers, the order of the positions; unused ones are H or OH. Bridge positions count the residues as written; N and C are the ends. Square brackets hold non-standard residues; d marks the D form. Peptide text beside a SMILES is read from it. X1 = C=C(N[*:2])c1nc(-c2nc(-c3nc(C(=O)OC)cs3)ccc2C(=O)[*:1])cs1; NMePhe(4-NO2) = CN[C@@H](Cc1ccc([N+](=O)[O-])cc1)C(=O)O; LeuThz(4-CO) = CC(C)C[C@H](N[*:1])c1nc(C(=O)[*:2])cs1; ValThz = CC(C)[C@H](N[*:1])c1nc(C(=O)[*:2])cs1; Tic(7-OH) = O=C(O)[C@@H]1Cc2ccc(O)cc2CN1; X2 = O=C(c1csc([C@H](CO)N[*:1])n1)[*:2]; X3 = C/C=C(\N[*:1])c1nc(C(=O)[*:2])cs1; Aad = N[C@@H](CCCC(=O)O)C(=O)O; Dhb = C/C=C(\N)C(=O)O; Dha = C=C(N)C(=O)O; Sar = CNCC(=O)O

Legend:
[1] = Serum stability assay (LC/MS against internal standard); details: for half-life at 10 µM: human, human serum diluted in TBS, pH 7.6
Experimental: The ratio of areas under the peak for the intact analyte over the internal standard (EIC
chromatograms generated with m/z ± 3 cutoff values) were used to calculate the extent of
analyte degradation. Thiopeptide half-life values were obtained from non-linear regression
(scipy)15 of experimentally measured values to the standard first order kinetic decomposition
Serum stability assay. To a solution of analyte thiopeptide (13.3 µM) and the internal
standard peptide in TBS [5 µM; buffer: 50 mM Tris (pH 7.6), 150 mM NaCl] human serum
(0.33 volumes; Cosmo Bio) was added on ice. The solutions were mixed well and transferred to a 37 °C thermostat. At various timepoints, aliquots were withdrawn and quenched with 2.3 volumes of methanol containing 30 mM iodoacetamide. The mixtures were incubated on
ice for 15 min and then at 25 °C for 30 min. The samples were then centrifuged (15300 g for
5 min), and the supernatant (0.5 µL) was analyzed by LC/MS (section 2.5) using method 6
1 – 10 min 1 – 81% B, linear ramp
Data analysis was conducted as for the trypsin digestion assays.

[2] = system: agarose-immobilized TPCK-treated trypsin (Thermo Fisher); experiment: agarose-immobilized TPCK-treated trypsin in digestion buffer [50 mM tris, 100 mM NaCl, 10 mM EDTA, pH 7.9]; details: 22 °C, up to 6 h
TNIK [3] = target: T1, TNIK (Homo sapiens, UniProt Q9UKE5); experiment: ADP-Glo kinase inhibition assay; assay type: biochemical; design: Biotinylated TNIK (kinase domain, amino acids 1-314;); biotin (biotinylated protein); purchased Carna Biosciences (Kobe, Japan)
T1 sequence (Q9UKE5 1-314): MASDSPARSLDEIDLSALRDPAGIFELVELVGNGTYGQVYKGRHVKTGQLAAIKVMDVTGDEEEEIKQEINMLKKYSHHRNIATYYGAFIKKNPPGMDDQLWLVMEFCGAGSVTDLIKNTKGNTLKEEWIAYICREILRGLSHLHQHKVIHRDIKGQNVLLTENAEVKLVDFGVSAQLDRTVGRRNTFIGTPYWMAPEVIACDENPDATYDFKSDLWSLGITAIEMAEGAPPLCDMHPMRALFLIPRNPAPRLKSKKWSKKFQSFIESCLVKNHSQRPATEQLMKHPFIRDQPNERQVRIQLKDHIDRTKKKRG
Experimental: 2.9. Kinase inhibition assays with ADP-Glo
The ADP-Glo assay system was purchased from Promega. The kinase reaction buffer contained 50 mM Tris (pH 7.5), 10 mM MgCl2 and 0.01% (v/v) triton X-100. TNIK (1.25 nM) was incubated with various concentrations of analyte inhibitors in kinase reaction buffer at 25 °C for 10 min. After, the reactions were initiated by the addition of ATP and substrate […]
peptide (MSTtide, sequence: NH2-NKGYNTLRRKK-CONH2;ref 14 synthesized using the standard Fmoc SPPS techniques). The final mixtures containing 0.5 nM TNIK, 25 µM ATP, 15 µM MSTtide and variable concentration of the inhibitors were incubated at 25 °C for 30 min. The reactions were stopped by the addition of ADP -Glo reagent (1 volume), and the luminescent signal was developed following the manufacturer’s instructions. Luminesce was recorded on a Tecan M1000 PRO microplate reader (Tecan Group) with 1 s acquisition time and no signal attenuation. TNIK kinase activity was normalized to a no inhibitor control, and […]
values to the standard 4-parameter logistic curve model. […]

[4] = Stability to glutathione (LC/MS); details: for half-life at 10 µM: 5 mM glutathione in HEPES buffer, pH 7.5
TNIK [5] = target: T1, TNIK; experiment: Surface plasmon resonance, binding of thiopeptides to immobilized biotinylated TNIK (single-cycle, then multicycle kinetics); design: Biotinylated TNIK (kinase domain, amino acids 1-314;); biotin (biotinylated protein); purchased Carna Biosciences (Kobe, Japan); details: for koff / kon / Kd / KD: SPR kinetic data, binding to immobilized TNIK; for Kd: read-out: KD; for KD (binding affinity to TNIK): average from three multicycle kinetic experiments, 1:1 binding model, 25 °C
Experimental: 2.8. Surface plasmon resonance
In the initial experiment, binding affinities between the thiopeptides and TNIK were measured with a Biacore T200 instrument (GE Healthcare) at 25 °C. The assay buffer contained 50 mM Tris (pH 7.5), 150 mM NaCl, 10 mM MgCl2, 0.01% (v/v) tween-20 and 0.1% (v/v) DMSO. For wTP3, the assay buffer additionally contained ATP (f.c.: 1 mM).
Biotinylated TNIK was immobilized on a Biacore CAP chip (GE Healthcare) to a surface density of 950-1200 response units following the standard immobilization protocols provided by the manufacturer. The interaction sensorgrams were measured as single-cycle kinetics performed with five concentrations of the ligand sequentially flown over the chip at a flow rate of 15 μL/min allowing for 20 or 30 s association and 70 or 60 s for dissociation between the steps. The final dissociation step was allowed to proceed for 180 s. […]
was repeated in triplicate on a Biacore 8K instrument (GE Healthcare) using a multi cycle kinetics format. The experimental details were as above, except ATP was not added to the buffer for wTP3. Kinetic parameters and affinities of the interaction were determined assuming the standard 1:1 binding model using the Biacore software (GE Healthcare).
Reported KD values were calculated from the average measured association and dissociation rates (Table S5).

trypsin = system: T2, trypsin; experiment: Stability to agarose-immobilized trypsin (LC/MS); assay type: in vitro ADME; details: isolated enzyme trypsin, pH 7.9
T2 construct: purchased Thermo Fisher
Experimental: 2.10. Thiopeptide metabolic stability experiments
Stability to trypsin. To a solution of the analyte thiopeptide (15 µM) and the internal standard peptide (5 µM NH2-PEG5-wstndwdtnd-PEG5-CONH2;ref 16 lower case encoding is for D-amino acids; synthesized using the standard Fmoc SPPS techniques) in digestion buffer [50 mM tris, 100 mM NaCl, 10 mM EDTA, pH 7.9] was added agarose -immobilized TPCK-treated trypsin (Thermo Fisher; 1 µL of resin slurry; 100 µL final reaction volume ) that was previously washed with digestion buffer thrice. The mixture was agitated at 22 °C, and at various timepoints (0.5, 1, 2, 4, and 6 h) aliquots were withdrawn and quenched with 14 volumes of water/acetonitrile mixture [30: 70 (v/v) water: acetonitr ile with 0.1% (v/v) TFA]. […]

[6] = system: HCT116 colon carcinoma cells; experiment: Cell viability assay (Cell Counting Kit-8); details: 10 μM, 24 h, thiopeptide acetate salts
Experimental: HCT116 cells were cultured in McCoy's 5A (Modified) Medium supplemented with 1% (v/v)
penicillin-streptomycin and 10% (v/v) fetal bovine serum (all from Thermo Fisher) in a
All assays were conducted using thiopeptide acetate salts prepared as follows. Strong
anion resin (AG® 1–X8 acetate form, analytical grade, quaternary ammonium 10~50 mg)
was first washed three times with 1.6 N acetic acid and three times with 0.16 N acetic acid.
Then, a thiopeptide solution ( 0.5~3 mg, dissolved in water/ acetonitrile [1:1, v/v; ~1 ml]) was
added to the resin. After 2 h on a rotary shaker, the peptide-resin suspension was ﬁltered
and the liquid phase was recovered. The resin was washed twice with water/acetonitrile (1:1,
v/v; 0.5 ml/wash), and the solutions were combined.
Cell viability assays. HCT116 cells were grown to 40–50% confluency in 96-well plates
that the final DMSO concentration is 1% (v/v) for every sample. In the first experiment (Fig.
S44a), the cells were grown for 24 h, and the incubation time was further extended to 48 h
In both cases, the cell viability was
directly assayed with Cell Counting Kit-8 (Dojindo) following the manufacturer’s instructions
allowing 4 h to develop the signal. Absorbance at 450 nm was measured on a Tecan M1000
PRO microplate reader (Tecan Group), and live cell counts were normalized to the DMSO
control. All experiments were performed in triplicate, and in most cases, replicated at least
once to analogous outcomes.

[7] = 0.5 nM TNIK, 25 µM ATP, 15 µM MSTtide, 4-parameter logistic fit, read-out: ADP-Glo IC50 against TNIK

Row | half-life at 10 µM [1] [h] | IC50 (TNIK [3]; [7]) [nM] | half-life at 15 µM (trypsin) [h] | KD (TNIK [5]) | KD (binding affinity to TNIK) (TNIK [5]) | Compound | not cleaved [2] | further results
1 | 18.9 ± 1.5 | 2700 ± 200 | 1.2 ± 0.1 |  |  | C=C1NC(=O)[C@@H]2Cc3ccc(O)cc3CN2C(=O)[C@H](CCCNC(=N)N)NC(=O)[C@H](CC(C)C)NC(=O)[C@H](Cc2ccc([N+](=O)[O-])cc2)N(C)C(=O)[C@H](CC(N)=O)NC(=O)[C@H](CC(C)C)NC(=O)[C@H](CCCNC(=N)N)NC(=O)[C@H](CCCC(N)=O)NC(=O)[C@H](C)NC(=O)[C@H](Cc2c[nH]c3ccccc23)NC(=O)c2ccc(-c3nc(C(=O)OC)cs3)nc2-c2csc(n2)C(=C)NC(=O)CNC1=O [hTP13] (WA[Aad](NH2)RLN[NMePhe(4-NO2)]LR[Tic(7-OH)][Dha]G; linker N-C via X1) |  | half-life at 10 µM [4]: 1.9 ± 0.1 h; metabolic stability, τ1/2, glutathione ([4]; 5 mM glutathione, pH 7.5, 37 °C): less than 2 h; koff (TNIK [5]): 0.0533 s⁻¹; kon (TNIK [5]): 648000 M⁻¹ s⁻¹; Kd (TNIK [5]): 82 nM
2 | 56.3 ± 6.4 | 1270 ± 90 | > 100 |  |  | C=C1NC(=O)CN(C)C(=O)[C@H](CC(N)=O)NC(=O)c2csc(n2)[C@H](CO)NC(=O)[C@H](Cc2c[nH]c3ccccc23)NC(=O)[C@H](Cc2c[nH]c3ccccc23)NC(=O)c2ccc(-c3nc(C(=O)OC)cs3)nc2-c2csc(n2)C(=C)NC(=O)[C@H](C)NC(=O)/C(=C/C)NC(=O)[C@@H]2Cc3ccc(O)cc3CN2C(=O)[C@H](Cc2ccc([N+](=O)[O-])cc2)N(C)C(=O)CN(C)C(=O)C(=C)NC1=O [wTP12] (WW[X2]N[Sar][Dha][Dha][Sar][NMePhe(4-NO2)][Tic(7-OH)][Dhb]A; linker N-C via X1) |  | cytotoxicity (cell viability) after 24 h incubation [6]: inactive; half-life at 10 µM [4]: 16.4 ± 2 h; koff (TNIK [5]): 0.0597 s⁻¹; kon (TNIK [5]): 308000 M⁻¹ s⁻¹; Kd (TNIK [5]): 194 nM
3 | 3.6 ± 0.1 | 10700 ± 1100 | 1.01 ± 0.07 | weak/no binding; fitting not conducted | no measurable binding/inhibition | C=C1NC(=O)[C@H](Cc2ccc([N+](=O)[O-])cc2)N(C)C(=O)CN(C)C(=O)CNC(=O)[C@H](Cc2c[nH]c3ccccc23)NC(=O)c2ccc(-c3nc(C(=O)OC)cs3)nc2-c2csc(n2)C(=C)NC(=O)c2csc(n2)[C@H](CC(C)C)NC(=O)[C@H](CO)NC(=O)[C@H](CCCNC(=N)N)NC(=O)[C@H](CC(N)=O)NC(=O)CN(C)C(=O)[C@H](CC(C)C)NC(=O)[C@H](CC(N)=O)NC1=O [hTP6] (WG[Sar][NMePhe(4-NO2)][Dha]NL[Sar]NRS[LeuThz(4-CO)]; linker N-C via X1) |  | metabolic stability, τ1/2, serum ([1]; human serum, 37 °C, first-order decay fit): unstable
4 | 34.9 ± 2.3 | 15200 ± 1500 | > 100 | weak/no binding; fitting not conducted | no measurable binding/inhibition | C=C1NC(=O)[C@H](CCCC(N)=O)NC(=O)[C@@H]2Cc3ccc(O)cc3CN2C(=O)[C@H](CC(N)=O)NC(=O)/C(=C/C)NC(=O)[C@H](Cc2ccc([N+](=O)[O-])cc2)N(C)C(=O)CN(C)C(=O)[C@H](C)NC(=O)[C@H](Cc2c[nH]c3ccccc23)NC(=O)c2ccc(-c3nc(C(=O)OC)cs3)nc2-c2csc(n2)C(=C)NC(=O)c2csc(n2)[C@H](C(C)C)NC(=O)C(=C)NC(=O)/C(=C/C)NC1=O [wTP8] (WA[Sar][NMePhe(4-NO2)][Dhb]N[Tic(7-OH)][Aad](NH2)[Dha][Dhb][Dha][ValThz]; linker N-C via X1) |  | 
5 | 18.7 ± 1.5 | 24900 ± 3600 | > 100 | weak/no binding; fitting not conducted | no measurable binding/inhibition | C=C1NC(=O)CN(C)C(=O)/C(=C/C)NC(=O)C(=C)NC(=O)[C@@H]2Cc3ccc(O)cc3CN2C(=O)[C@@H]2CCCN2C(=O)[C@H](CC(C)C)NC(=O)[C@H](Cc2c[nH]c3ccccc23)NC(=O)[C@H](Cc2c[nH]c3ccccc23)NC(=O)c2ccc(-c3nc(C(=O)OC)cs3)nc2-c2csc(n2)C(=C)NC(=O)c2csc(n2)/C(=C/C)NC(=O)/C(=C/C)NC1=O [hTP4] (WWLP[Tic(7-OH)][Dha][Dhb][Sar][Dha][Dhb][X3]; linker N-C via X1) |  | 
6 | 14.3 ± 0.7 | 240 ± 30 | > 100 |  |  | C=C1NC(=O)[C@@H]2Cc3ccc(O)cc3CN2C(=O)CN(C)C(=O)/C(=C/C)NC(=O)CN(C)C(=O)[C@H](CCCC(N)=O)NC(=O)[C@H](Cc2c[nH]c3ccccc23)NC(=O)[C@H](Cc2c[nH]c3ccccc23)NC(=O)c2ccc(-c3nc(C(=O)OC)cs3)nc2-c2csc(n2)C(=C)NC(=O)CNC(=O)/C(=C/C)NC(=O)[C@H](Cc2ccc([N+](=O)[O-])cc2)N(C)C(=O)[C@H]([C@@H](C)O)NC(=O)C(=C)NC1=O [wTP4] (WW[Aad](NH2)[Sar][Dhb][Sar][Tic(7-OH)][Dha][Dha]T[NMePhe(4-NO2)][Dhb]G; linker N-C via X1) |  | ADP-Glo IC50 against TNIK (TNIK [3]; 0.5 nM TNIK, 25 µM ATP, 15 µM MSTtide, 4-parameter logistic fit): sub-μM; koff (TNIK [5]): 0.000432 s⁻¹; kon (TNIK [5]): 42500 M⁻¹ s⁻¹; Kd (TNIK [5]): 10.2 nM

Continued, compound first:

Row | Compound | half-life at 10 µM [1] [h] | IC50 (TNIK [3]; [7]) [nM] | half-life at 15 µM (trypsin) [h] | KD (TNIK [5]) | KD (binding affinity to TNIK) (TNIK [5]) | not cleaved [2] | further results
7 | C=C1NC(=O)C(=C)NC(=O)[C@H](CCCCN)NC(=O)[C@H](CC(C)C)NC(=O)[C@H]([C@@H](C)O)NC(=O)[C@H](CCCCN)NC(=O)[C@H](Cc2ccc(O)cc2)NC(=O)[C@H]([C@@H](C)CC)NC(=O)[C@H](Cc2ccccc2)NC(=O)CNC(=O)[C@H](Cc2c[nH]c3ccccc23)NC(=O)c2ccc(-c3nc(C(=O)OC)cs3)nc2-c2csc(n2)C(=C)NC(=O)CNC1=O [TP1, reference compound] (WGFIYKTLK[Dha][Dha]G; linker N-C via X1) | 2.3 ± 0.1 |  |  |  |  |  | 
8 | WCgSgySSTfSG |  |  |  |  |  | did not degrade (6 h); completely stable; τ1/2 >100 h | 
9 | WLPySTgSTTC |  |  |  |  |  | did not degrade (6 h); τ1/2 > 100 h, no measurable degradation during the course of the experiment | 
10 | C=C1NC(=O)[C@@H]2CCCN2C(=O)[C@H]([C@@H](C)O)NC(=O)CN(C)C(=O)CN(C)C(=O)CN(C)C(=O)[C@H](Cc2ccc([N+](=O)[O-])cc2)N(C)C(=O)[C@H](CC(N)=O)NC(=O)[C@@H]2Cc3ccc(O)cc3CN2C(=O)[C@H](Cc2ccc([N+](=O)[O-])cc2)N(C)C(=O)[C@H](CO)NC(=O)[C@H](CC(N)=O)NC(=O)[C@H]([C@@H](C)O)NC(=O)[C@H](Cc2c[nH]c3ccccc23)NC(=O)c2ccc(-c3nc(C(=O)OC)cs3)nc2-c2csc1n2 [wTP13] (WTNS[NMePhe(4-NO2)][Tic(7-OH)]N[NMePhe(4-NO2)][Sar][Sar][Sar]TP; linker N-C via X1) | 99.4 ± 13 |  |  | weak/no binding; fitting not conducted | no measurable binding/inhibition |  | IC50 (TNIK [3]): 9600 ± 700 nM; half-life at 15 µM (trypsin; agarose-immobilized trypsin, 22 °C, read-out: metabolic stability, τ1/2, trypsin): > 100 h
11 | WCgTgySSTfTG |  |  |  |  |  | did not degrade (6 h); completely stable; τ1/2 >100 h | 
12 | AgfTNyCSTSVC |  |  |  |  |  | did not degrade (6 h); completely stable; τ1/2 >100 h | 
13 | TNSfyNfgggTP |  |  |  |  |  | completely stable; τ1/2 >100 h | 
